In data set [1] the test system is Rattus norvegicus. In words: Amount of urine output was measured in rat at a dose of 10 mg/kg/po. The settings on record: in vivo. Format: ADME, organism-based.
For data set [2], the target named is T1, Vasopressin V1a receptor (Rattus norvegicus, UniProt P30560). In words: Displacement of (Phe-3,4,5 [3H]-) AVP from isolated rat hepatic V1a receptor.
The target in data set [3] is T2, Vasopressin V2 receptor (Rattus norvegicus, UniProt Q00788). Briefly: Displacement of P[3H]-AVP from isolated rat kidney medullary V2 receptor.
T2 sequence (Q00788 whole entry): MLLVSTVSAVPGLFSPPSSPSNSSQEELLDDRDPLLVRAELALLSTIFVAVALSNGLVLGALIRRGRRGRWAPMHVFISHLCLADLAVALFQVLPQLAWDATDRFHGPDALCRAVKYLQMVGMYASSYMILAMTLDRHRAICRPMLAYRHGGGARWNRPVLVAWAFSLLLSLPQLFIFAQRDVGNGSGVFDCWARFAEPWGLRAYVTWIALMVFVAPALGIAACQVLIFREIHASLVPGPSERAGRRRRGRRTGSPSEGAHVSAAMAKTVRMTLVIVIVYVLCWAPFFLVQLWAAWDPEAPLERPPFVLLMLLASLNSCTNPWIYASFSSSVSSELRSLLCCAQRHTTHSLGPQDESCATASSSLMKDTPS
The target of data set [4] is Vasopressin V1a receptor (Rattus norvegicus) (UniProt P30560). In words: In vitro inhibition of (Phe-3,4,5 [3H]-) AVP binding towards isolated rat hepatic V1a receptor at a dose of 10 uM.
Chain of Vasopressin V1a receptor (Rattus norvegicus) (P30560 whole entry, looked up): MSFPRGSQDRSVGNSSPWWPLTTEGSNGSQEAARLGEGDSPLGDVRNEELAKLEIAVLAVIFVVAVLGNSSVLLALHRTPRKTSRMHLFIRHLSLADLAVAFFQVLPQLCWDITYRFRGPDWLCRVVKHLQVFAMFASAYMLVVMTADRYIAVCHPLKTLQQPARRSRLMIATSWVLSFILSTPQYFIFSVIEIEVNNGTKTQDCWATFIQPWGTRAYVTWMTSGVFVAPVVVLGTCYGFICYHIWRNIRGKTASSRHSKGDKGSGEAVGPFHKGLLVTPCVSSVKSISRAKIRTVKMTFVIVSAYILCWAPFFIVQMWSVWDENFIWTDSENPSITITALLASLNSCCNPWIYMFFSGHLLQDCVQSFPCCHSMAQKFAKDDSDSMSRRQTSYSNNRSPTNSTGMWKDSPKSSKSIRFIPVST
For data set [5], the target named is Vasopressin V2 receptor (Rattus norvegicus) (UniProt Q00788). Briefly: In vitro inhibition of (P[3H]-AVP binding towards isolated rat kidney medullary V2 receptor at a dose of 10 uM.
Chain of Vasopressin V2 receptor (Rattus norvegicus) (Q00788 whole entry): as the sequence (Q00788 whole entry) above
Data set [6] addresses T1, Vasopressin V1a receptor. Briefly: In vitro inhibition of (Phe-3,4,5 [3H]-) AVP binding towards isolated rat hepatic Vasopressin V1a receptor.
The target in data set [7] is T2, Vasopressin V2 receptor. Briefly: In vitro inhibition of (P[3H]-AVP binding towards isolated rat kidney medullary Vasopre ssin V2 receptor.
Data set [8] relates to Rattus norvegicus. Briefly: Amount of urine output was measured in rat at a dose of 1 mg/kg/po. Format: ADME, organism-based. To be noted: in vivo.

Structures are written as SMILES.

T1 sequence (P30560 whole entry): as the sequence (P30560 whole entry, looked up) above

Usually IC50 stands for the concentration that inhibits the measured activity by half. Read a low IC50 as greater potency. Take `O=C(Nc1ccc(C(=O)N2Cc3cccn3Cc3ccccc32)cn1)c1ccccc1-c1ccccc1`: the Urine volume in the data set with Rattus norvegicus [1] was 16.5 ml 4hr-1. Also, the IC50 at Vasopressin V1a receptor [2] worked out at 30 nM; on Vasopressin V2 receptor [3] it was 8.3 nM.

The inhibition is the change of the read-out against control, counted positive when it falls. As for `Cc1ccc(F)cc1C(=O)N(CCCN(C)C)c1ccc(C(=O)N2Cc3cccn3Cc3ccccc32)cn1`, the inhibition in data set [4] turned out to be 68%. This compound displayed an IC50 at Vasopressin V2 receptor [3] of 290 nM.

As to `O=C(Nc1ccc(C(=O)N2Cc3cccn3Cc3ccccc32)cn1)c1ccc(F)cc1F`, the values for the inhibition in data set [4] and in data set [5] were 37% and 58%, respectively.

Consider `O=C(Nc1ccc(C(=O)N2Cc3cccn3Cc3ccccc32)cn1)c1ccccc1[N+](=O)[O-]`, for which the concentration for half-maximal inhibition (IC50) came to 920 nM at Vasopressin V1a receptor [2] and 160 nM at Vasopressin V2 receptor [3].

In the data set on Rattus norvegicus [1], `O=C(Nc1ccc(C(=O)N2Cc3cccn3Cc3ccccc32)cn1)c1c(F)cccc1Cl` came in with a Urine volume of 15.8 ml 4hr-1. For the same compound, the IC50 is 40 nM at Vasopressin V1a receptor [2] and 4 nM on Vasopressin V2 receptor [3].

In the data set with Rattus norvegicus [1], `Cc1ccc(F)cc1C(=O)Nc1ccc(C(=O)N2Cc3cccn3Cc3ccccc32)c(Cl)c1` [LIXIVAPTAN] showed a Urine volume of 35 ml 4hr-1. In addition, the IC50 is 82 nM at Vasopressin V1a receptor [2] and 0.5 nM on Vasopressin V2 receptor [3].

In the data set with Rattus norvegicus [1], `Cc1c(F)cccc1C(=O)Nc1ccc(C(=O)N2Cc3cccn3Cc3ccccc32)cn1` gave a Urine volume of 34 ml 4hr-1. The same compound showed an IC50 at Vasopressin V1a receptor [2] of 9 nM.

Compound `Cc1ccccc1C(=O)Nc1ccc(C(=O)N2Cc3cccn3Cc3ccccc32)cn1` registered a Urine volume in the data set on Rattus norvegicus [1] of 5.3 ml 4hr-1. Besides, the IC50 at Vasopressin V1a receptor [6] is 21 nM; on Vasopressin V2 receptor [7], 3 nM.

On to `Nc1ccccc1C(=O)Nc1ccc(C(=O)N2Cc3cccn3Cc3ccccc32)cn1`, for which the inhibition in data set [4] came out at 29%. Also, the IC50 at Vasopressin V2 receptor [3] worked out at 210 nM.

As to `O=C(Nc1ccc(C(=O)N2Cc3cccn3Cc3ccccc32)cn1)c1ccc(F)cc1Cl`, in the data set with Rattus norvegicus [1], the Urine volume came out at 30.5 ml 4hr-1.

In the data set with Rattus norvegicus [1], `O=C(Nc1ccc(C(=O)N2Cc3cccn3Cc3ccccc32)cn1)c1ccccc1Cl` yielded a Urine volume of 4 ml 4hr-1.

Take `O=C(Nc1ccc(C(=O)N2Cc3cccn3Cc3ccccc32)cn1)c1cc(Br)ccc1Cl`: the Urine volume in the data set on Rattus norvegicus [1] is on record as 16.5 ml 4hr-1. Also, the concentration for half-maximal inhibition (IC50) came out at 82 nM at Vasopressin V1a receptor [2] and 7.3 nM on Vasopressin V2 receptor [3].

In turn, `O=C(Nc1ccc(C(=O)N2Cc3cccn3Cc3ccccc32)cn1)c1cc(Cl)ccc1Cl` returned a Urine volume in the data set with Rattus norvegicus [1] of 19.3 ml 4hr-1. The IC50 came out at 100 nM on Vasopressin V1a receptor [2] and 4.3 nM at Vasopressin V2 receptor [3].

As to `Cc1ccc(F)cc1C(=O)Nc1ccc(C(=O)N2Cc3cccn3Cc3ccccc32)cn1`, the Urine volume in the data set on Rattus norvegicus [8] stood at 20 ml 4hr-1.

`O=C(Nc1ccc(C(=O)N2Cc3cccn3Cc3ccccc32)cn1)c1cc(F)ccc1F` registered a Urine volume in the data set with Rattus norvegicus [1] of 11.8 ml 4hr-1. For the same compound, the IC50 on Vasopressin V1a receptor [2] was 310 nM; at Vasopressin V2 receptor [3], 240 nM.

The compound `Cc1ccc(F)cc1C(=O)Nc1ccc(C(=O)N2Cc3ccc(CN(C)C)n3Cc3ccccc32)cn1` displayed a Urine volume in the data set on Rattus norvegicus [1] of 12.5 ml 4hr-1. In addition, the IC50 on Vasopressin V1a receptor [2] worked out at 99 nM; at Vasopressin V2 receptor [3], 33 nM.

Consider `O=C(Nc1ccc(C(=O)N2Cc3cccn3Cc3ccccc32)cn1)c1cc(-c2ccccn2)ccc1Cl`, for which the IC50 at Vasopressin V1a receptor [2] was determined as 260 nM; on Vasopressin V2 receptor [3] it was 480 nM.

On to `COc1cc(C(=O)Nc2ccc(C(=O)N3Cc4cccn4Cc4ccccc43)cn2)cc(OC)c1OC`, for which the inhibition was found to be 51% in data set [4] and 41% in data set [5].

The values are drawn from ChEMBL document CHEMBL1131758, “5-fluoro-2-methyl-N-[5-(5H-pyrrolo[2,1-c][1,4]benzodiazepine-10(11H)-yl carbonyl)-2-pyridinyl]benzamide (CL-385004) and analogs as orally active arginine vasopressin receptor antagonists” (Bioorg Med Chem Lett, 1999).
